# Literature values in patent publication US20250049951A1, “NUCLEIC ACID COMPOSITIONS AND USES THEREOF” (SURGE Therapeutics, Inc., priority 2021, published 2025).
# Where “and” joins values, the source holds several entries; their conditions need not be identical. Equal entries are not always repeated.
# Legend:
# TLR8 = molecular target: T1, TLR8 (Homo sapiens, UniProt Q9NR97); conditions: TLR8-transfected HEK293 cells
# T1 construct: expressed in transfected cells; host or cells: HEK293
# T1 sequence (Q9NR97 27-1041): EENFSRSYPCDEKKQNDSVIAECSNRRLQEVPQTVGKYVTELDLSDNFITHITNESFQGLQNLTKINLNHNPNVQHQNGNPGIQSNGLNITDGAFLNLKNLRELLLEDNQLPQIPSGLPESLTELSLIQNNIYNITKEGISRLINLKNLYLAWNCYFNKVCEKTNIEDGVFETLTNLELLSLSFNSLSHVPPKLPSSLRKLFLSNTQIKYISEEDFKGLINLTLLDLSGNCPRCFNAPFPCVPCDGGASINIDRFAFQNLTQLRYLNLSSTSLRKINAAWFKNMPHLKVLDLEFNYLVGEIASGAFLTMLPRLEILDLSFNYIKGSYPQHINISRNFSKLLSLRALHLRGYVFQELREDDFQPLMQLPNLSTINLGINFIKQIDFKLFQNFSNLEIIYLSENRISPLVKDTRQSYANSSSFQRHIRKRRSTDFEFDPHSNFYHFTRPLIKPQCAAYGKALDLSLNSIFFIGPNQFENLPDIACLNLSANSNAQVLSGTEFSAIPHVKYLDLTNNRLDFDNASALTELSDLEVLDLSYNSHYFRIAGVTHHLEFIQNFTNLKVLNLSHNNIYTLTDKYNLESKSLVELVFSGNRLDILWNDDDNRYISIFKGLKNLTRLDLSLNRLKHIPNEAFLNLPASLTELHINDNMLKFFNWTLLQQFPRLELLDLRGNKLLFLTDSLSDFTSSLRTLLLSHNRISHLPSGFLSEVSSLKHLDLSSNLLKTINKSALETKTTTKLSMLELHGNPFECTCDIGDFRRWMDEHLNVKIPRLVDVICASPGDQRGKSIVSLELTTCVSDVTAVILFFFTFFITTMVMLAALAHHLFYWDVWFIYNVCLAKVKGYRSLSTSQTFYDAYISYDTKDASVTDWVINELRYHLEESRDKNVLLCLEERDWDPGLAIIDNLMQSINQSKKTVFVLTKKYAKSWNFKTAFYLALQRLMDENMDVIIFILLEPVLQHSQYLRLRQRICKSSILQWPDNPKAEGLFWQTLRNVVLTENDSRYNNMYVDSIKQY
# TLR7 = molecular target: T2, TLR7 (Homo sapiens, UniProt Q9NYK1)
# T2 construct: expressed in transfected cells; host or cells: HEK293
# T2 sequence (Q9NYK1 27-1049): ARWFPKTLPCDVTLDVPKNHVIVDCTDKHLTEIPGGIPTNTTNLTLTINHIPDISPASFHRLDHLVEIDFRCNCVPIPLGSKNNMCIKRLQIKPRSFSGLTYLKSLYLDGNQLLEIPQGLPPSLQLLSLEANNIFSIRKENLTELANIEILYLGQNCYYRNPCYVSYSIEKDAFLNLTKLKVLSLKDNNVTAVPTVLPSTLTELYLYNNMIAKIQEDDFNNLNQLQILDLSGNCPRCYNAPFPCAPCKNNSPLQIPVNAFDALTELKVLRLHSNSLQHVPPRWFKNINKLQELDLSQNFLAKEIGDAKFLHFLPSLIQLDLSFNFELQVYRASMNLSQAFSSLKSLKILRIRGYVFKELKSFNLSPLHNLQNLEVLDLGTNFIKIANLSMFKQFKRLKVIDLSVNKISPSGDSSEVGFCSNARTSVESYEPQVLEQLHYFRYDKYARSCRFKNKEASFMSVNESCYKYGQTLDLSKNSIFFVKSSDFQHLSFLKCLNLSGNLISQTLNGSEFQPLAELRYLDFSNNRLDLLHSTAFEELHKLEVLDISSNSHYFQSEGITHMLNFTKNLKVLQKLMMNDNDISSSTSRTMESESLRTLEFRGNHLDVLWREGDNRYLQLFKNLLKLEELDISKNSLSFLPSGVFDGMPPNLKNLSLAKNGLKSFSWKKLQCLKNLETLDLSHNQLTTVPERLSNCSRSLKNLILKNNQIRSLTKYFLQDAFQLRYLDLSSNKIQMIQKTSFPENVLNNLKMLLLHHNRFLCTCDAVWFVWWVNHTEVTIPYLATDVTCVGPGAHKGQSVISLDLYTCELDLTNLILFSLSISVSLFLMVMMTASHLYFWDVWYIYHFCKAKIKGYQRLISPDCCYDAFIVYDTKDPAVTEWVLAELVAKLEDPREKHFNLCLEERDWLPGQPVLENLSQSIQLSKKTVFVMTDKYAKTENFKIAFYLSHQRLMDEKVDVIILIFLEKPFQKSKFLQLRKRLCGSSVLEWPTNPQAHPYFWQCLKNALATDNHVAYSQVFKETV
Compound,potency in inducing NF-κB activation relative to CL075 (TLR8; more potent than CL075),potency in inducing NF-κB activation relative to R848 (TLR8; more potent than R848),concentration inducing NF-κB activation (TLR8),amount required to activate NF-κB in TLR7- relative to TLR8-transfected HEK293 cells (TLR7; times more than the 0.4 μM needed in TLR8 cells),concentration inducing NF-κB activation (TLR7; TLR7-transfected HEK293 cells),water solubility
CCOC(=O)C1=Cc2ccc(-c3cccc(C#N)c3)cc2N=C(N)C1 [TL8-506],~25 ×,~50 ×,–,–,–,–
CCCc1nc2c(N)nc3ccccc3c2s1 [CL075],–,–,0.4 μM and 0.1 μg/ml,~10 times,–,–
CCOCC1Nc2c(N)nc3ccccc3c2N1 (stereo not shown) [CL097],–,–,4 μM and 1 μg/ml,–,0.4 μM and 0.1 μg/ml,≥ 20 mg/mL
